Among the data in patent US7704995B2 (Exelixis, Inc., priority 2003, dated 2010) are IC50 values, retold here.

Molecules are shown by their SMILES.

The target in the assay is T1, Chk1 (Homo sapiens, UniProt O14757).
T1 construct: purchased Upstate Biotechnology
T1 sequence (O14757 1-476): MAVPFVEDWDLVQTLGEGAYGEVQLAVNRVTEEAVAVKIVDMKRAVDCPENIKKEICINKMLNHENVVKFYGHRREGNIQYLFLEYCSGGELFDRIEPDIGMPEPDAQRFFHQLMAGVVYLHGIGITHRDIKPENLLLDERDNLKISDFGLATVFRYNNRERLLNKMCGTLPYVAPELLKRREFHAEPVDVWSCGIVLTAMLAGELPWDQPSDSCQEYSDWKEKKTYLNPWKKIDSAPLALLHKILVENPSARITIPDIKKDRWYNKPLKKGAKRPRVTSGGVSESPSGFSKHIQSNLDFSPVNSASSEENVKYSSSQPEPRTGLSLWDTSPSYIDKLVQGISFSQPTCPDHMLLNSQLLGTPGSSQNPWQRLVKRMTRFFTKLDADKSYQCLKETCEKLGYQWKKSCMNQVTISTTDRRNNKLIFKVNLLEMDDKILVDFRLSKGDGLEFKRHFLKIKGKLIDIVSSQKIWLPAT
In words: Chk1 kinase assay: incorporation of γ-33P ATP into immobilized myelin basic protein. As to conditions: Table 11; Chk1 only; read-out: Chk1 IC50. Type of assay: biochemical. The gist of the method: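 MBP coated on plates (20 μg/ml) was phosphorylated by Chk1 (10 nM) or Chk2 (20 nM) with γ-33P ATP plus 10 μM (Chk1) or 30 μM (Chk2) unlabeled ATP, 1 h at room temperature, 1% DMSO. Bound radioactivity was counted by scintillation after washing; IC50 or Ki derived from fitted rate data.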
In the case of `CCn1nc(-c2nc(-c3cccc(C(=O)N[C@H]4CCc5ccccc54)c3)cnc2N)nc1[C@@H]1CCCN(C(=O)OCc2ccccc2)C1` [Example 749, phenylmethyl (3R)-3-{3-[3-amino-6-(3-{[(1S)-2,3-dihydro-1H-inden-1-ylamino]carbonyl}phenyl)pyrazin-2-yl]-1-ethyl-1H-1,2,4-triazol-5-yl}piperidine-1-carboxylate], the concentration for half-maximal inhibition (IC50) is at least 10000 nM.
Next, `CNC(=O)c1nc(-c2cccc([C@H](C)N[C@H]3CCc4ccccc43)c2)cnc1N` [Example 750, 3-amino-6-(3-{(1S)-1-[(1S)-2,3-dihydro-1H-inden-1-ylamino]ethyl}phenyl)-N-methylpyrazine-2-carboxamide]: 50 to 1000 nM.
In the case of `Nc1ncc(-c2cccc(C(=O)N[C@@H]3c4ccccc4C[C@@H]3O)c2)nc1C(=O)NCCc1c[nH]cn1` [Example 751, 3-amino-6-[3-({[(1R,2S)-2-hydroxy-2,3-dihydro-1H-inden-1-yl]amino}carbonyl)phenyl]-N-[2-(1H-imidazol-4-yl)ethyl]pyrazine-2-carboxamide], the concentration for half-maximal inhibition (IC50) is 50 to 1000 nM.
Next, `CC(C)(C)OC(=O)N1CC[C@@H](CNC(=O)c2nc(-c3cccc(C(=O)N[C@H]4CCc5ccccc54)c3)cnc2N)C1` [Example 752, 1,1-dimethylethyl (3S)-3-[({[3-amino-6-(3-{[(1S)-2,3-dihydro-1H-inden-1-ylamino]carbonyl}phenyl)pyrazin-2-yl]carbonyl}amino)methyl]pyrrolidine-1-carboxylate]: at least 10000 nM; `Nc1ncc(-c2cccc(C(=O)N[C@H]3CCc4ccccc43)c2)nc1C(=O)NC[C@@H]1CCNC1` [Example 753, 3-amino-6-(3-{[(1S)-2,3-dihydro-1H-inden-1-ylamino]carbonyl}phenyl)-N-[(3R)-pyrrolidin-3-ylmethyl]pyrazine-2-carboxamide]: under 50 nM.
For the molecule `Cn1nc(-c2nc(-c3cccc(C(=O)N[C@H]4CCc5ccccc54)c3)cnc2N)nc1[C@@H]1CCCN(C(=O)OCc2ccccc2)C1` [Example 754, phenylmethyl (3R)-3-{3-[3-amino-6-(3-{[(1S)-2,3-dihydro-1H-inden-1-ylamino]carbonyl}phenyl)pyrazin-2-yl]-1-methyl-1H-1,2,4-triazol-5-yl}piperidine-1-carboxylate], the half-inhibitory concentration (IC50) lay in the range of 1000 to 10000 nM.
Next, `Nc1ncc(-c2cccc(C(=O)N[C@H]3CCc4ccccc43)c2)nc1-c1nnc([C@H]2CCCNC2)[nH]1` [Example 755, 3-(5-amino-6-{5-[(3S)-piperidin-3-yl]-4H-1,2,4-triazol-3-yl}pyrazin-2-yl)-N-[(1S)-2,3-dihydro-1H-inden-1-yl]benzamide]: under 50 nM; `CC(C)(C)OC(=O)N1CC[C@H](NC(=O)c2nc(-c3cccc(C(=O)NCc4ccccn4)c3)cnc2N)C1` [Example 757, 1,1-dimethylethyl (3S)-3-({[3-amino-6-(3-{[(pyridin-2-ylmethyl)amino]carbonyl}phenyl)pyrazin-2-yl]carbonyl}amino)pyrrolidine-1-carboxylate]: 1000 to 10000 nM; `CC(C)(C)OC(=O)N1CC[C@H](NC(=O)c2nc(-c3cccc(C(=O)NCc4cccnc4)c3)cnc2N)C1` [Example 758, 1,1-dimethylethyl (3S)-3-({[3-amino-6-(3-{[(pyridin-3-ylmethyl)amino]carbonyl}phenyl)pyrazin-2-yl]carbonyl}amino)pyrrolidine-1-carboxylate]: 1000 to 10000 nM.
For `CC(C)(C)OC(=O)N1CC[C@H](NC(=O)c2nc(-c3cccc(C(=O)NC4CCOc5ccccc54)c3)cnc2N)C1` (stereo partly drawn) [Example 759, 1,1-dimethylethyl (3S)-3-{[(3-amino-6-{3-[(3,4-dihydro-2H-chromen-4-ylamino)carbonyl]phenyl}pyrazin-2-yl)carbonyl]amino}pyrrolidine-1-carboxylate], the IC50 fell in the range of 1000 to 10000 nM.
Then `Nc1ncc(-c2cccc(C(=O)NCc3ccc(Cl)cc3)c2)nc1C(=O)N[C@H]1CCNC1` [Example 760, 3-amino-6-[3-({[(4-chlorophenyl)methyl]amino}carbonyl)phenyl]-N-[(3S)-pyrrolidin-3-yl]pyrazine-2-carboxamide], with under 50 nM; and `Nc1ncc(-c2cccc(C(=O)NCc3ccccn3)c2)nc1C(=O)N[C@H]1CCNC1` [Example 761, 3-amino-6-(3-{[(pyridin-2-ylmethyl)amino]carbonyl}phenyl)-N-[(3S)-pyrrolidin-3-yl]pyrazine-2-carboxamide], with 50 to 1000 nM; and `CNC(=O)c1nc(-c2cc(C(=O)OC)cc(C(=O)OC)c2)cnc1N` [Example 763, dimethyl 5-{5-amino-6-[(methylamino)carbonyl]pyrazin-2-yl}benzene-1,3-dicarboxylate], with 1000 to 10000 nM.
On to `Nc1ncc(-c2cccc(C(=O)N[C@H]3CCc4ccccc43)c2)nc1C(=O)N[C@@H]1CCCNC1` [Example 765, 3-amino-6-(3-{[(1S)-2,3-dihydro-1H-inden-1-ylamino]carbonyl}phenyl)-N-[(3R)-piperidin-3-yl]pyrazine-2-carboxamide], for which the concentration for half-maximal inhibition (IC50) was under 50 nM.
Next, `Nc1ncc(-c2cccc(C(=O)N[C@@H]3c4ccccc4C[C@@H]3O)c2)nc1C(=O)NC1CCCNC1` (stereo partly drawn) [Example 766, 3-amino-6-[3-({[(1R,2S)-2-hydroxy-2,3-dihydro-1H-inden-1-yl]amino}carbonyl)phenyl]-N-piperidin-3-ylpyrazine-2-carboxamide]: under 50 nM; `Nc1ncc(-c2cccc(C(=O)N[C@H]3CCc4ccccc43)c2)nc1C(=O)NCCc1c[nH]cn1` [Example 767, 3-amino-6-(3-{[(1S)-2,3-dihydro-1H-inden-1-ylamino]carbonyl}phenyl)-N-[2-(1H-imidazol-4-yl)ethyl]pyrazine-2-carboxamide]: 50 to 1000 nM.
Then `Nc1ncc(-c2cccc(C(=O)N[C@H]3CCc4ccccc43)c2)nc1C(=O)NC1CCCNCC1` (stereo partly drawn) [Example 768, 3-amino-N-azepan-4-yl-6-(3-{[(1S)-2,3-dihydro-1H-inden-1-ylamino]carbonyl}phenyl)pyrazine-2-carboxamide], with 50 to 1000 nM.
Then `CC(C)(C)OC(=O)N1CC[C@@H](CNC(=O)c2nc(-c3cccc(C(=O)N[C@@H]4c5ccccc5C[C@@H]4O)c3)cnc2N)C1` [Example 769, 1,1-dimethylethyl (3S)-3-{[({3-amino-6-[3-({[(1R,2S)-2-hydroxy-2,3-dihydro-1H-inden-1-yl]amino}carbonyl)phenyl]pyrazin-2-yl}carbonyl)amino]methyl}pyrrolidine-1-carboxylate], with at least 10000 nM; and `CC(C)(C)OC(=O)N1CCCC(NC(=O)c2nc(-c3cccc(C(=O)N[C@H]4CCc5ccccc54)c3)cnc2N)CC1` (stereo partly drawn) [Example 770, 1,1-dimethylethyl 4-({[3-amino-6-(3-{[(1S)-2,3-dihydro-1H-inden-1-ylamino]carbonyl}phenyl)pyrazin-2-yl]carbonyl}amino)azepane-1-carboxylate], with at least 10000 nM; and `Nc1ncc(-c2cccc(C(=O)N[C@H]3CCc4ccccc43)c2)nc1-c1n[nH]c(CCOCc2ccccc2)n1` [Example 771, 3-[5-amino-6-(5-{2-[(phenylmethyl)oxy]ethyl}-1H-1,2,4-triazol-3-yl)pyrazin-2-yl]-N-[(1S)-2,3-dihydro-1H-inden-1-yl]benzamide], with 1000 to 10000 nM.
Regarding `CNC(=O)c1nc(-c2ccc(F)c(C(=O)N[C@H]3CCc4ccccc43)c2)cnc1N` [Example 772, 3-amino-6-(3-{[(1S)-2,3-dihydro-1H-inden-1-ylamino]carbonyl}-4-fluorophenyl)-N-methylpyrazine-2-carboxamide], the 50% inhibitory concentration (IC50) was 50 to 1000 nM.
`Nc1ncc(-c2cccc(C(=O)N[C@H]3CCc4ccccc43)c2)nc1-c1nc(C2CCCNC2)n(-c2ccccc2)n1` (stereo partly drawn) [Example 773, 3-[5-amino-6-(1-phenyl-5-piperidin-3-yl-1H-1,2,4-triazol-3-yl)pyrazin-2-yl]-N-[(1S)-2,3-dihydro-1H-inden-1-yl]benzamide]: the IC50 was in the range of 50 to 1000 nM.
In the case of `N=C(N)c1nc(-c2cccc(C(=O)N[C@H]3CCc4ccccc43)c2)cnc1N` [Example 774, 3-{5-amino-6-[amino(imino)methyl]pyrazin-2-yl}-N-[(1S)-2,3-dihydro-1H-inden-1-yl]benzamide], the IC50 fell in the range of 1000 to 10000 nM.
Regarding `Nc1ncc(-c2cccc(C(=O)N[C@@H]3c4ccccc4C[C@@H]3O)c2)nc1-c1nnc([C@H]2CCCNC2)[nH]1` [Example 775, 3-(5-amino-6-{5-[(3S)-piperidin-3-yl]-4H-1,2,4-triazol-3-yl}pyrazin-2-yl)-N-[(1R,2S)-2-hydroxy-2,3-dihydro-1H-inden-1-yl]benzamide], the concentration for half-maximal inhibition (IC50) is under 50 nM.
Next, `CC(C)(C)OC(=O)N1CCC[C@H](NC(=O)c2nc(-c3cccc(C(=O)N[C@H]4CCc5ccccc54)c3)cnc2N)C1` [Example 776, 1,1-dimethylethyl (3S)-3-({[3-amino-6-(3-{[(1S)-2,3-dihydro-1H-inden-1-ylamino]carbonyl}phenyl)pyrazin-2-yl]carbonyl}amino)piperidine-1-carboxylate]: 50 to 1000 nM; `CC(C)(C)OC(=O)N1CCC[C@H](NC(=O)c2nc(-c3cccc(C(=O)N[C@@H]4c5ccccc5C[C@@H]4O)c3)cnc2N)C1` [Example 777, 1,1-dimethylethyl (3S)-3-[({3-amino-6-[3-({[(1R,2S)-2-hydroxy-2,3-dihydro-1H-inden-1-yl]amino}carbonyl)phenyl]pyrazin-2-yl}carbonyl)amino]piperidine-1-carboxylate]: under 50 nM.
